In PMC3566143, “Pantothenamides Are Potent, On-Target Inhibitors of Plasmodium falciparum Growth When Serum Pantetheinase Is Inactivated” (PLoS ONE, 2013):
Where two headings read alike, the source gives them in different places.

Assays:
[1] = test system: erythrocytic stage P. falciparum parasites (strain 3D7); test: SYBR Green I-based in vitro growth assay (96 h); format: cell-based, Plasmodium falciparum; details: for IC50: Plasmodium falciparum, 96 h
Procedure: Erythrocytic stage P. falciparum parasites (strain 3D7) were maintained within human erythrocytes in continuous culture essentially as described previously, [25]. P. falciparum-infected erythrocytes were routinely cultured in RPMI 1640 medium supplemented with 25 mM HEPES, 20 mM D-glucose, 200 µM hypoxanthine, 24 mg/L gentamycin and Albumax II (0.6%, w/v), which, hereafter is referred to as Albumax-complete RPMI. For several days prior to carrying out the assays testing the effect of compounds on the growth of P. falciparum in medium supplemented with human serum (instead of Albumax II), the parasites were cultured in the same medium mentioned above, except that human serum (10%, v/v, pooled from different blood donors) was used rather than Albumax II. This medium is hereafter referred to as human serum-complete RPMI.
The in vitro antiplasmodial activity of test compounds was determined using the malaria SYBR Green I-based fluorescence assay described by Smilkstein et al., with minor modifications. Briefly, P. falciparum-infected erythrocytes were incubated in culture medium containing two-fold dilutions of the test compounds in 96-well microtiter plates. Assays were initiated with ring-stage P. falciparum-infected erythrocytes at a hematocrit and parasitemia of 1%. Wells containing infected erythrocytes in the presence of chloroquine (0.25–2 µM) served as zero growth controls and wells containing infected erythrocytes in the absence of chloroquine or test compounds served as 100% parasite growth controls. Plates were incubated at 37°C under an atmosphere of 96% nitrogen, 3% carbon dioxide and 1% oxygen for 96 h, before 100 µL from each well was mixed with 100 µL of SYBR Safe DNA gel stain (0.2 µL/mL) in 20 mM Tris, pH 7.5, 5 mM ethylenediaminetetraacetic acid (EDTA), 0.008% (w/v) saponin, 0.08% (v/v) Triton X-100, in a second 96-well microtitre plate. Fluorescence was measured using a FLUOstar OPTIMA multidetection microplate reader from BMG LABTECH with excitation and emission wavelengths of 490 and 520 nm, respectively. The 50% inhibitory concentration (IC50) of each test compound under each test condition was calculated by fitting the data to a sigmoidal curve (typically y = a/(1+ (x/x0)^b) using nonlinear least squares regression (SigmaPlot, Systat Software) and averaging the IC50 estimates from independent experiments.
The antiplasmodial activity of test compounds was assessed in media that had been subjected to different pre-incubations. “Fresh” medium refers to medium that was stored for a maximum of 48 h at 4°C, and incubated at 37°C for a maximum of 1 h, prior to use. “Aged” medium refers to medium that was stored for a minimum of one week at 4°C and incubated intermittently at 37°C, or medium incubated continuously at 37°C for 40 h soon after preparation. As indicated at the relevant positions within the “Results” section, for some experiments the fresh medium used was, more specifically, medium used immediately following preparation, and the aged medium used was, more specifically, medium that was incubated at 37°C for 40 h immediately prior to use.

[2] = target: T1, recombinant human pantetheinase (Vanin-1) (Homo sapiens, UniProt O95497); test: fluorescamine-based pantothenamide hydrolysis assay with recombinant pantetheinase; format: in vitro ADME; details: 200 µM compound, same conditions with water instead of enzyme
T1 construct: purchased Novoprotein Scientific Inc. (Short Hills, New Jersey, USA)
T1 sequence (O95497 22-513): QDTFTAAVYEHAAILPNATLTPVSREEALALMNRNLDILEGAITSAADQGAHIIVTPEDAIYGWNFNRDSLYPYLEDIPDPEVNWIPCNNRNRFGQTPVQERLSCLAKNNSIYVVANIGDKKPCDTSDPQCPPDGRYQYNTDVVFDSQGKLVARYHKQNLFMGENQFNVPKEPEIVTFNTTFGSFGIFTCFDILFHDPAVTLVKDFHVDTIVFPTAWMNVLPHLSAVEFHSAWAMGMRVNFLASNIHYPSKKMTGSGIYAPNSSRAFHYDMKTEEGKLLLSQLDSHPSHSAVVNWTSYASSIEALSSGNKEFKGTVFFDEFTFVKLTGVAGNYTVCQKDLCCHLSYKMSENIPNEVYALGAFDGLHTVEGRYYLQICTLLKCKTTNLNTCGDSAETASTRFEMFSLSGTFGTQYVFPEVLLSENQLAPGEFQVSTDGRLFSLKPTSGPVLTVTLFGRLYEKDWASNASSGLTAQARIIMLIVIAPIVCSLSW
Procedure: (§1) Hydrolysis of compound 12 to pantothenate and isobutylamine was measured using a modification of a fluorescence-based assay described previously for the measurement of N-acetyl-1-D-myo-inosityl-2-amino-2-deoxy-α-D-glucopyranoside deacetylase activity, [31]. The assay utilizes fluorescamine (4-phenylspiro-[furan-2(3H),1-phthalan]-3,3′-dione; a non-fluorescent molecule that reacts with primary amines to form a fluorescent product) for the detection of primary amines. Briefly, recombinant human pantetheinase (at a final concentration of 100 ng/mL), Albumax II (at a final concentration 0.6%, w/v), or an equivalent volume of water, was added to solutions (at 37°C) of 100 mM potassium phosphate, pH 7.5, 0.5 mM dithiothreitol, 0.01% (w/v) bovine serum albumin, 0.1% (v/v) DMSO, with or without pantothenamide (at a final concentration of 200 µM). At the appropriate time points, aliquots (30 µL) of the reaction mixtures were removed in duplicate and mixed with 10 µL 20% (v/v) trichloroacetic acid to terminate the reaction. […] The plate was then incubated at 37°C for 10 min before fluorescence was measured using a FLUOstar OPTIMA multidetection microplate reader from BMG LABTECH with excitation and emission wavelengths of 390 and 485 nm, respectively. The fluorescence detected was converted to the corresponding isobutylamine concentration using an isobutylamine standard curve. […]

[3] = test system: Albumax II; test: fluorescamine-based pantothenamide hydrolysis assay with Albumax II; format: in vitro ADME, bovine; details: 200 µM compound, Albumax II 0.6% (w/v), 37°C
Procedure: as §1

CC(C)CNC(=O)CCNC(=O)[C@H](O)C(C)(C)CO [Compound 12]
IC50 ([1]; 3D7, 96 h, fresh Albumax-complete RPMI, 1 µM pantothenate, read-out: IC50 against P. falciparum, fresh medium, 1 μM pantothenate): 133 ± 12 µM | IC50 ([1]; 3D7, aged Albumax-complete RPMI (37°C for 40 h), 1 µM pantothenate, read-out: IC50 against P. falciparum, aged medium, 1 μM pantothenate): 1.1 ± 0.1 µM | IC50 ([1]; 3D7, human serum (10%, v/v) medium incubated at 37°C for 40 h, read-out: IC50 against P. falciparum in aged human serum-complete RPMI): 22 ± 10 µM | increase in potency after second ageing of Albumax II-supplemented aged medium ([1]; aged + Albumax II + 40 h at 37°C versus aged + fresh Albumax II): > 65 fold | effect of recombinant human pantetheinase on antiplasmodial effect in aged medium ([1]; aged Albumax-complete RPMI + 100 ng/mL recombinant human pantetheinase added at start of assay): alleviated the antiplasmodial effect | fold-increase in IC50 following supplementation with 100 µM pantothenate, aged medium ([1]; aged Albumax-complete RPMI, IC50 at 100 µM pantothenate / IC50 at 1 µM pantothenate): 21±1 times | effect on parasite growth in aged Albumax-complete RPMI with additional Albumax II ([1]; aged medium + additional Albumax II (0.6%, w/v) immediately prior to assay, 200 µM): little-to-no effect on parasite growth | effect on parasite growth at 200 µM in aged Albumax-complete RPMI ([1]; aged medium, 200 µM): inhibits parasite growth completely | fold-increase in IC50 following supplementation with 100 µM pantothenate, fresh medium ([1]; fresh Albumax-complete RPMI, IC50 at 100 µM pantothenate / IC50 at 1 µM pantothenate): 1.3±0.2 times | effect on parasite growth in fresh human serum-complete RPMI ([1]; human serum (10%, v/v), fresh medium, up to 200 µM (highest concentration tested)): little-to-no effect on parasite growth | hydrolysis in the absence of pantetheinase [2]: not observed | time to completion of hydrolysis [3]: ≤ 24 h | fraction of pantothenamide hydrolyzed during 6 h incubation ([3]; 6 h): over one third
